In publication PMC6895912 (Cancers, 2019):
“Also recorded” adds a separate entry of the source. Read-outs that look alike come from different tables or passages of the source.

What was measured:
[1] = tested on: CWR-R1, CWR-R1 (10E), CWR-R1-MTX20nM cells; assay: Colony formation (clonogenicity) assay; type: cell-based, human; details: parental CWR-R1 and drug-resistant counterparts, 14 days
Description: (A) Comparative GI50 values of Gal, NGGAs, and enzalutamide (ENZ) in drug-naïve-/-resistant prostate cancer cells. (B) Gal and NGGAs induce G1 cell cycle arrest in LNCaP cells. (C) VNPP414 and VNPP433-3β deplete the cell cycle regulator, cyclin D1, and upregulate p21; “+” indicates specific treatments. (D) Gal cause dose-dependent depletion of cyclin D1. (E) Unlike ENZ, Gal and VNPP433-3β inhibit colony formation of drug-naïve/-resistant cells in vitro. 1000 cells/well (CWR-R1, CWR-R1 (10E), CWR-R1-MTX20nM), seeded in 6-well plates were treated with indicated concentrations of compounds for a period of 14 days. Media containing compounds were replaced every 3 days. Colonies were stained with 0.05% crystal violet. (F) Quantification of colony formation units (CFU) in drug-naive/resistant cells. Colony assays were repeated three times and colonies counted in four quadrants of the wells. Results are represented as averages with S.E.M. (* p < 0.05, ** p < 0.001). Note: the numbers in parentheses in Figure 2B,C,E are concentrations of the agents in µM.
0.1 × 10^3 cells per well were seeded in 6-well plates and allowed to attach overnight (16 h), cells were treated with compounds in regular media (RPMI with 10% FBS) at the indicated concentrations and replaced every 3rd day for 14 days or until visible colonies could be counted. Colonies were washed and stained with 0.05% crystal violet for 30 min. Colonies were scanned and quantified (colonies counted in four quadrants of each well) with ImageJ colony counter. Results are represented as the mean of triplicates.

LNCaP cells = assay: Cell cycle analysis (G1 arrest); type: cell-based, human; details: 2.5 µM as effective as Gal at 20 µM
Description: The new NGGAs (VNPP414 and VNPP433-3β) were identified from in vitro anti-proliferative activities of our in-house compounds assessed in several PC cell lines, including LNCaP, C4-2B, and CWR22Rv1 (22Rv1). […] It was recently reported that treatment of AR-expressing bladder cancer cell lines with enzalutamide induced up-regulation of tumor suppressor, p53, p21 and PTEN, and down-regulation of several oncogenic genes, such as c-myc, cyclin D1, and cyclin E [38]. […] We note that these cell-cycle studies were conducted in LNCaP cells. Inhibition of colony formations (clonogenicity assays) was also assessed by treating the parental CWR-R1 cells and two drug-resistant counterparts with Gal, VNPP433-3β, or ENZ.
(A) Comparative GI50 values of Gal, NGGAs, and enzalutamide (ENZ) in drug-naïve-/-resistant prostate cancer cells. (B) Gal and NGGAs induce G1 cell cycle arrest in LNCaP cells. (C) VNPP414 and VNPP433-3β deplete the cell cycle regulator, cyclin D1, and upregulate p21; “+” indicates specific treatments. (D) Gal cause dose-dependent depletion of cyclin D1. (E) Unlike ENZ, Gal and VNPP433-3β inhibit colony formation of drug-naïve/-resistant cells in vitro. […] (F) Quantification of colony formation units (CFU) in drug-naive/resistant cells. Colony assays were repeated three times and colonies counted in four quadrants of the wells. […]

AR-V7 = target: T1, AR-V7 (Homo sapiens, UniProt P10275); assay: Protein level decrease by western blot, dose-response in CWR22Rv1 cells; type: cell-based; details: for times more effective (than Gal) in degrading AR-V7: from EC50 values
T1 construct: compound treatments (0–7.5 µM) of CWR22Rv1 cells for 72 h followed by western blot analysis of cells lysates; endogenous in cells; host or cells: CWR22Rv1
T1 sequence (P10275 1-644 isoform P10275-3): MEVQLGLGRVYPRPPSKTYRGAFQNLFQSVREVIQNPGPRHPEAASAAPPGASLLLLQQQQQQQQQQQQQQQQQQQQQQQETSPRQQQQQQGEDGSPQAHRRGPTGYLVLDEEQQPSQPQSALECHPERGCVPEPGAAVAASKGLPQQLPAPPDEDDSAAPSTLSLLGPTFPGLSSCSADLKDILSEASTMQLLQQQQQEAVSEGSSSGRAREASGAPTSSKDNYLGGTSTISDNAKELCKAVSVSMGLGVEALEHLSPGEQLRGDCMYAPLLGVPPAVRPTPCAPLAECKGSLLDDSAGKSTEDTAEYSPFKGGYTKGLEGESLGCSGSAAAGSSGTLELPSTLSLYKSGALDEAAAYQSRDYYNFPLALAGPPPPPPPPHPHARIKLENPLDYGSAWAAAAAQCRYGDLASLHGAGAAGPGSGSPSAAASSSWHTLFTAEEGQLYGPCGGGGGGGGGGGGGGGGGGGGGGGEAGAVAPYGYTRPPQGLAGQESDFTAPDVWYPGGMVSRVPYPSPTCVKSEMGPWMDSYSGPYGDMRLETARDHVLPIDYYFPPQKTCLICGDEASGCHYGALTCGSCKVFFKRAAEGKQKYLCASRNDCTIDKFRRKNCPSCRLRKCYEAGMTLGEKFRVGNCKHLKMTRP
Description: (§1) Figure 4 Impact of Gal and NGGAs on AR/AR-V7 and Mnk1/2-eIF4E signaling pathways. (A) Western blot showing the effects of Gal and VNPT55 (55) on Mnk1, Mnk2, and peIF4E. […] (D) Western blot showing dose-dependent effect of Gal on Mnk1, Mnk2, BMI-1, and Snail1 in drug-resistant CWR-R1(10E) cells. […] Note: the numbers in parentheses in Figure 4B are concentrations of the agents in µM.
(§2) We further determined the effects of lead NGGAs on f-AR, AR-V7 and Mnk1 protein levels in CWR22Rv1 cells.
(§3) Cells were lysed with radioimmunoprecipitation assay (RIPA) buffer (Sigma, St. Louis, MO, USA), supplemented with 1X protease inhibitors (Roche, Indianapolis, IN, USA), phosphatase inhibitors (Thermo Scientific, Waltham, MA, USA), 1 mmol/L EDTA and 1 mmol/L PMSF (Sigma).

fAR = fAR (Homo sapiens, UniProt P10275); assay: as above; type: cell-based
Sequence of fAR (P10275 whole entry): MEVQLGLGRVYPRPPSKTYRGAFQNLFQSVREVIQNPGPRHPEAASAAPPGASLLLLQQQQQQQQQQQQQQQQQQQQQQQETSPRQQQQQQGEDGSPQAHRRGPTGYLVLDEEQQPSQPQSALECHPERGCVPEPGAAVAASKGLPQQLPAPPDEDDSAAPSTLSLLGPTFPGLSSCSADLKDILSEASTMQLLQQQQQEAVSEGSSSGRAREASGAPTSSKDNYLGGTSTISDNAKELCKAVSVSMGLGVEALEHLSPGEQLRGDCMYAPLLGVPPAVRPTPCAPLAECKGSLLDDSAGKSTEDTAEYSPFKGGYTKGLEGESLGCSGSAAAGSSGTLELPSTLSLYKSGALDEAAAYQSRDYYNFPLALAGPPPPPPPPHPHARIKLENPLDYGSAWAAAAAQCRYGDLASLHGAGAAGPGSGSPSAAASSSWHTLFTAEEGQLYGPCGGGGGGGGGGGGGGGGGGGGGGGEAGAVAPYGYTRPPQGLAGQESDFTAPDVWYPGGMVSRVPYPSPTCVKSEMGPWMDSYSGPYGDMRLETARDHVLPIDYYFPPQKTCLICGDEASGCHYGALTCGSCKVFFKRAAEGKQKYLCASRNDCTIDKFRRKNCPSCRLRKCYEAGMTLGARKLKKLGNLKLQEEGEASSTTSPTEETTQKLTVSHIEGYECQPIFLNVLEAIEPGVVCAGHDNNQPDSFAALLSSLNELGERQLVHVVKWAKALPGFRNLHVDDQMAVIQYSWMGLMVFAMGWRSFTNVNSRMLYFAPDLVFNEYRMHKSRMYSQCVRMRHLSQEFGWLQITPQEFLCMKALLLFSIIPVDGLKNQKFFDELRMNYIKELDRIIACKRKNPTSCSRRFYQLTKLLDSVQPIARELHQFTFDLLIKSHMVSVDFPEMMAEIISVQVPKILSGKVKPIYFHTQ
Description: as §1, §2, §3

PC-3 cells = assay: Wound-healing cell migration assay; type: cell-based, human; details: PC-3, wound healing, 12 h

C[C@]12CC[C@H](O)CC1=CC[C@@H]1[C@@H]2CC[C@]2(C)C(n3cnc4ccccc43)=CC[C@@H]12 [Galeterone]
inhibition of colony formation [1]: markedly inhibited clonogenic ability

C[C@]12CC[C@H](OCc3ccncc3)CC1=CCC1C2CC[C@]2(C)C(n3cnc4ccccc43)=CCC12 (stereo partly drawn) [VNPP414]
improved potency over Gal in G1 cell cycle arrest (LNCaP cells): ≥ 8 fold | DC50 (AR-V7; 0–7.5 µM, 72 h, western blot, read-out: AR-V7 EC50): 1260 ± 50 nM | times more effective (than Gal) in degrading AR-V7 (AR-V7): 3.9 times | EC50 (fAR; read-out: fAR EC50, 0–7.5 µM, 72 h): 840 ± 2 nM | inhibition of cell migration (PC-3 cells): significant inhibition of PC-3 cells migration

C[C@]12CC[C@H](n3ccnc3)CC1=CCC1C2CC[C@]2(C)C(n3cnc4ccccc43)=CCC12 (stereo partly drawn) [VNPP433-3β]
improved potency over Gal in G1 cell cycle arrest (LNCaP cells): ≥ 8 fold | inhibition of colony formation [1]: significantly more potent than Gal; also recorded: markedly inhibited clonogenic ability | times more effective (than Gal) in degrading AR-V7 (AR-V7): 3.7 times | DC50 (AR-V7; read-out: AR-V7 EC50, 0–7.5 µM, 72 h, western blot): 1340 ± 330 nM | EC50 (fAR; 0–7.5 µM, 72 h, read-out: fAR EC50): 580 ± 2 nM | inhibition of cell migration (PC-3 cells): significant inhibition of PC-3 cells migration
